# Results published in the supplement of paper PMC10307832.
# Tests used:
# Experiment in all cases: relative viability (nuclei count vs DMSO), 5 days (fraction); higher = more cells survive
# BEN = test system: BEN
# Outline: (§1)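 Lung cancer cell lines were seeded in 1536-well plates and dosed by pin tool the next day, with either a single drug or a fixed anchor-drug dose combined with five library-drug doses (not always all listed) spaced in √10 steps. Five days later, one step fixed the cells and stained their nuclei (final 0.05% Triton X-100, 1% formaldehyde, 1 ug/ml Hoechst), and nuclei were counted on 4× images. Relative viability is the nuclei count in treated wells divided by the count in vehicle wells, and each value is the median of duplicate plates.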
# CAL-12T = test system: CAL-12T
# Outline: as §1
# HCC-366 = test system: HCC-366
# Outline: as §1
# LOU-NH91 = test system: LOU-NH91
# Outline: as §1
# LU99A = test system: LU99A
# Outline: as §1
# NCI-H1355 = test system: NCI-H1355
# Outline: as §1
# NCI-H1437 = test system: NCI-H1437
# Outline: as §1
# NCI-H1651 = test system: NCI-H1651
# Outline: as §1
# NCI-H1734 = test system: NCI-H1734
# Outline: as §1
# NCI-H1793 = test system: NCI-H1793
# Outline: as §1
# NCI-H1975 = test system: NCI-H1975
# Outline: as §1
# NCI-H2085 = test system: NCI-H2085
# Outline: as §1
# NCI-H2342 = test system: NCI-H2342
# Outline: as §1
# NCI-H358 = test system: NCI-H358
# Outline: as §1
# NCI-H441 = test system: NCI-H441
# Outline: as §1
# NCI-H460 = test system: NCI-H460
# Outline: as §1
# NCI-H838 = test system: NCI-H838
# Outline: as §1
compound,measurement,setting,value
Cc1sc2c(c1C)C(c1ccc(Cl)cc1)=N[C@@H](CC(=O)OC(C)(C)C)c1nnc(C)n1-2 [JQ1] + NC(=O)Nc1cc(-c2cccc(F)c2)sc1C(=O)N[C@H]1CCCNC1 [AZD7762] (partner 0.2 µM),relative viability,BEN; first compound 0.04 µM,0.718
same,relative viability,BEN; first compound 0.1265 µM,0.585
same,relative viability,BEN; first compound 0.4 µM,0.644
same,relative viability,BEN; first compound 1.265 µM,0.468
same,relative viability,BEN; first compound 4 µM,0.372
same,relative viability,CAL-12T; first compound 0.04 µM,0.588
same,relative viability,CAL-12T; first compound 0.1265 µM,0.52
same,relative viability,CAL-12T; first compound 0.4 µM,0.466
same,relative viability,CAL-12T; first compound 1.265 µM,0.365
same,relative viability,CAL-12T; first compound 4 µM,0.317
same,relative viability,HCC-366; first compound 0.04 µM,0.305
same,relative viability,HCC-366; first compound 0.4 µM,0.23
same,relative viability,HCC-366; first compound 1.265 µM,0.146
same,relative viability,HCC-366; first compound 4 µM,0.0976
same,relative viability,LOU-NH91; first compound 0.04 µM,0.759
same,relative viability,LOU-NH91; first compound 0.1265 µM,0.609
same,relative viability,LOU-NH91; first compound 0.4 µM,0.664
same,relative viability,LOU-NH91; first compound 1.265 µM,0.379
same,relative viability,LOU-NH91; first compound 4 µM,0.407
same,relative viability,LU99A; first compound 0.04 µM,0.443
same,relative viability,LU99A; first compound 0.4 µM,0.271
same,relative viability,LU99A; first compound 1.265 µM,0.165
same,relative viability,LU99A; first compound 4 µM,0.172
same,relative viability,NCI-H1355; first compound 0.04 µM,0.747
same,relative viability,NCI-H1355; first compound 0.1265 µM,0.769
same,relative viability,NCI-H1355; first compound 0.4 µM,0.705
same,relative viability,NCI-H1355; first compound 1.265 µM,0.554
same,relative viability,NCI-H1355; first compound 4 µM,0.406
same,relative viability,NCI-H1437; first compound 0.04 µM,1.11
same,relative viability,NCI-H1437; first compound 0.1265 µM,0.979
same,relative viability,NCI-H1437; first compound 0.4 µM,0.847
same,relative viability,NCI-H1437; first compound 1.265 µM,0.657
same,relative viability,NCI-H1437; first compound 4 µM,0.445
same,relative viability,NCI-H1651; first compound 0.04 µM,0.538
same,relative viability,NCI-H1651; first compound 0.1265 µM,0.45
same,relative viability,NCI-H1651; first compound 0.4 µM,0.427
same,relative viability,NCI-H1651; first compound 1.265 µM,0.421
same,relative viability,NCI-H1651; first compound 4 µM,0.419
same,relative viability,NCI-H1734; first compound 0.04 µM,0.544
same,relative viability,NCI-H1734; first compound 0.1265 µM,0.53
same,relative viability,NCI-H1734; first compound 0.4 µM,0.47
same,relative viability,NCI-H1734; first compound 1.265 µM,0.281
same,relative viability,NCI-H1734; first compound 4 µM,0.273
same,relative viability,NCI-H1793; first compound 0.04 µM,0.482
same,relative viability,NCI-H1793; first compound 0.1265 µM,0.395
same,relative viability,NCI-H1793; first compound 0.4 µM,0.824
same,relative viability,NCI-H1793; first compound 1.265 µM,0.556
same,relative viability,NCI-H1793; first compound 4 µM,0.459
same,relative viability,NCI-H1975; first compound 0.04 µM,0.678
same,relative viability,NCI-H1975; first compound 0.1265 µM,0.412
same,relative viability,NCI-H1975; first compound 0.4 µM,0.767
same,relative viability,NCI-H1975; first compound 1.265 µM,0.526
same,relative viability,NCI-H1975; first compound 4 µM,0.41
same,relative viability,NCI-H2085; first compound 0.04 µM,0.935
same,relative viability,NCI-H2085; first compound 0.1265 µM,0.822
same,relative viability,NCI-H2085; first compound 0.4 µM,1.06
same,relative viability,NCI-H2085; first compound 1.265 µM,0.446
same,relative viability,NCI-H2085; first compound 4 µM,0.318
same,relative viability,NCI-H2342; first compound 0.04 µM,0.544
same,relative viability,NCI-H2342; first compound 0.1265 µM,0.475
same,relative viability,NCI-H2342; first compound 0.4 µM,0.588
same,relative viability,NCI-H2342; first compound 1.265 µM,0.465
same,relative viability,NCI-H2342; first compound 4 µM,0.4
same,relative viability,NCI-H358; first compound 0.04 µM,0.524
same,relative viability,NCI-H358; first compound 0.1265 µM,0.565
same,relative viability,NCI-H358; first compound 0.4 µM,0.538
same,relative viability,NCI-H358; first compound 1.265 µM,0.344
same,relative viability,NCI-H358; first compound 4 µM,0.232
same,relative viability,NCI-H441; first compound 0.04 µM,1.07
same,relative viability,NCI-H441; first compound 0.1265 µM,1.16
same,relative viability,NCI-H441; first compound 0.4 µM,1.04
same,relative viability,NCI-H441; first compound 1.265 µM,0.369
same,relative viability,NCI-H441; first compound 4 µM,0.249
same,relative viability,NCI-H460; first compound 0.04 µM,0.594
same,relative viability,NCI-H460; first compound 0.1265 µM,0.327
same,relative viability,NCI-H460; first compound 0.4 µM,0.644
same,relative viability,NCI-H460; first compound 1.265 µM,0.443
same,relative viability,NCI-H460; first compound 4 µM,0.106
same,relative viability,NCI-H838; first compound 0.04 µM,0.907
same,relative viability,NCI-H838; first compound 0.1265 µM,0.782
same,relative viability,NCI-H838; first compound 0.4 µM,0.817
same,relative viability,NCI-H838; first compound 1.265 µM,0.805
same,relative viability,NCI-H838; first compound 4 µM,0.628
COc1cc2nccc(Oc3ccc(NC(=O)Nc4cc(C)on4)c(Cl)c3)c2cc1OC [Tivozanib] + NC(=O)Nc1cc(-c2cccc(F)c2)sc1C(=O)N[C@H]1CCCNC1 [AZD7762] (partner 0.2 µM),relative viability,BEN; first compound 0.005 µM,0.6
same,relative viability,BEN; first compound 0.01581 µM,0.712
same,relative viability,BEN; first compound 0.05 µM,0.869
same,relative viability,BEN; first compound 0.1581 µM,0.375
same,relative viability,BEN; first compound 0.5 µM,0.737
same,relative viability,CAL-12T; first compound 0.005 µM,0.483
same,relative viability,CAL-12T; first compound 0.01581 µM,0.584
same,relative viability,CAL-12T; first compound 0.05 µM,0.668
same,relative viability,CAL-12T; first compound 0.1581 µM,0.722
same,relative viability,CAL-12T; first compound 0.5 µM,0.71
same,relative viability,HCC-366; first compound 0.005 µM,0.333
same,relative viability,HCC-366; first compound 0.01581 µM,0.245
same,relative viability,HCC-366; first compound 0.05 µM,0.35
same,relative viability,HCC-366; first compound 0.1581 µM,0.362
same,relative viability,HCC-366; first compound 0.5 µM,0.25
same,relative viability,LOU-NH91; first compound 0.005 µM,0.712
same,relative viability,LOU-NH91; first compound 0.01581 µM,0.77
same,relative viability,LOU-NH91; first compound 0.05 µM,0.753
same,relative viability,LOU-NH91; first compound 0.1581 µM,0.734
same,relative viability,LOU-NH91; first compound 0.5 µM,0.701
same,relative viability,LU99A; first compound 0.005 µM,0.337
same,relative viability,LU99A; first compound 0.01581 µM,0.342
same,relative viability,LU99A; first compound 0.05 µM,0.34
same,relative viability,LU99A; first compound 0.1581 µM,0.27
same,relative viability,LU99A; first compound 0.5 µM,0.288
same,relative viability,NCI-H1355; first compound 0.005 µM,0.737
same,relative viability,NCI-H1355; first compound 0.01581 µM,0.731
same,relative viability,NCI-H1355; first compound 0.05 µM,0.799
same,relative viability,NCI-H1355; first compound 0.1581 µM,0.606
same,relative viability,NCI-H1355; first compound 0.5 µM,0.716
same,relative viability,NCI-H1437; first compound 0.005 µM,1.12
same,relative viability,NCI-H1437; first compound 0.01581 µM,1.16
same,relative viability,NCI-H1437; first compound 0.05 µM,1.07
same,relative viability,NCI-H1437; first compound 0.1581 µM,1.17
same,relative viability,NCI-H1437; first compound 0.5 µM,1.04
same,relative viability,NCI-H1651; first compound 0.005 µM,0.381
same,relative viability,NCI-H1651; first compound 0.01581 µM,0.429
same,relative viability,NCI-H1651; first compound 0.05 µM,0.551
same,relative viability,NCI-H1651; first compound 0.1581 µM,0.301
same,relative viability,NCI-H1651; first compound 0.5 µM,0.421
same,relative viability,NCI-H1734; first compound 0.005 µM,0.515
same,relative viability,NCI-H1734; first compound 0.01581 µM,0.524
same,relative viability,NCI-H1734; first compound 0.05 µM,0.523
same,relative viability,NCI-H1734; first compound 0.1581 µM,0.408
same,relative viability,NCI-H1734; first compound 0.5 µM,0.451
same,relative viability,NCI-H1793; first compound 0.005 µM,0.448
same,relative viability,NCI-H1793; first compound 0.01581 µM,0.391
same,relative viability,NCI-H1793; first compound 0.05 µM,0.419
same,relative viability,NCI-H1793; first compound 0.5 µM,0.328
same,relative viability,NCI-H1975; first compound 0.005 µM,0.594
same,relative viability,NCI-H1975; first compound 0.01581 µM,0.742
same,relative viability,NCI-H1975; first compound 0.05 µM,0.746
same,relative viability,NCI-H1975; first compound 0.1581 µM,0.836
same,relative viability,NCI-H1975; first compound 0.5 µM,0.595
same,relative viability,NCI-H2085; first compound 0.005 µM,0.881
same,relative viability,NCI-H2085; first compound 0.01581 µM,0.862
same,relative viability,NCI-H2085; first compound 0.05 µM,1.05
same,relative viability,NCI-H2085; first compound 0.1581 µM,0.912
same,relative viability,NCI-H2085; first compound 0.5 µM,0.887
same,relative viability,NCI-H2342; first compound 0.005 µM,0.492
same,relative viability,NCI-H2342; first compound 0.01581 µM,0.431
same,relative viability,NCI-H2342; first compound 0.05 µM,0.609
same,relative viability,NCI-H2342; first compound 0.5 µM,0.414
same,relative viability,NCI-H358; first compound 0.005 µM,0.449
same,relative viability,NCI-H358; first compound 0.01581 µM,0.621
same,relative viability,NCI-H358; first compound 0.05 µM,0.552
same,relative viability,NCI-H358; first compound 0.1581 µM,0.513
same,relative viability,NCI-H358; first compound 0.5 µM,0.469
same,relative viability,NCI-H441; first compound 0.005 µM,1.05
same,relative viability,NCI-H441; first compound 0.01581 µM,0.935
same,relative viability,NCI-H441; first compound 0.05 µM,1.28
same,relative viability,NCI-H441; first compound 0.1581 µM,1.35
same,relative viability,NCI-H441; first compound 0.5 µM,1.08
same,relative viability,NCI-H460; first compound 0.005 µM,0.533
same,relative viability,NCI-H460; first compound 0.01581 µM,0.689
same,relative viability,NCI-H460; first compound 0.05 µM,0.651
same,relative viability,NCI-H460; first compound 0.1581 µM,0.566
same,relative viability,NCI-H460; first compound 0.5 µM,0.471
same,relative viability,NCI-H838; first compound 0.005 µM,0.918
same,relative viability,NCI-H838; first compound 0.01581 µM,0.895
same,relative viability,NCI-H838; first compound 0.05 µM,0.973
same,relative viability,NCI-H838; first compound 0.1581 µM,1.04
same,relative viability,NCI-H838; first compound 0.5 µM,0.95
